Results as given in PubChem BioAssay (NCI).
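Assay format: 96-well plates, 48-hour exposure. TGI denotes the concentration required for complete inhibition of growth.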

What follows are compounds tested on UO-31 renal (assay: NCI-60 cell line screen, 48 h).
For `O=[N+]([O-])c1ccc(-c2nn3c(C45CC6CC(CC(C6)C4)C5)nnc3s2)c(Cl)c1`, the TGI was greater than 100 µM.
For `CCCCCCCCCCCCCCCCNC(=O)/C(=C\c1ccc(Cl)c(Cl)c1)NC(=O)c1ccccc1`, the TGI was greater than 100 µM.
In the case of `CC(Cn1c2c(c3cc(O)ccc31)CCc1ccc(O)cc1-2)N(C)C` (stereo not drawn), the TGI was 28.3 µM.
In the case of `O=C(Cn1c2ccc(Br)cc2c2nc3ccccc3nc21)Nc1ccccc1`, the TGI was greater than 100 µM.
For `CCOC(=O)C(=CNc1ccc(F)c(F)c1)C(=O)OCC`, the TGI was greater than 100 µM.
`CN(N=O)c1nc2c(C(N)=O)ncn2s1` showed a TGI greater than 100 µM.
Compound `C1CCCN(NC2=NCCO2)CC1` has a TGI greater than 100 µM.
`CCOc1ccc(NC(=O)C(=O)Nn2c(N)nnc2N)cc1` gave a TGI greater than 100 µM.
In the case of `Cc1[nH]c(-c2ccccc2)c2nc(N(C)C)oc(=O)c12`, the TGI was greater than 100 µM.
`CC(C)(C)O/N=C/c1cc(NC(=S)c2ccsc2)ccc1Cl` was tested, and the TGI was 24.6 µM.
`Cc1ccc2nc(NS(=O)(=O)c3cc(C)c(Cl)cc3S)[nH]c2c1` was tested, and the TGI was greater than 100 µM.
Work on `O=[N+]([O-])c1cccc2nccc(NCCN3CCOCC3)c12` yielded a TGI greater than 100 µM.
`O=C1NC(N/N=C\c2ccccc2)=N/C1=C/c1ccccc1` gave a TGI greater than 100 µM.
`CCCCCCCCCCCCOCC1(COCCCCCCCCCCCC)COC(c2ccc(N)cc2)OC1` was tested, and the TGI was greater than 100 µM.
`C[C@@H]1CC[C@@H]2[C@@H](C1)O[C@@H]([C@@H](C)OCc1ccccc1)SC2(C)C` showed a TGI of 30.6 µM.
`Cc1sc2nc3n(c(=O)c2c1C)N=CN(c1ccc(Cl)cc1)C3` gave a TGI greater than 100 µM.
`NC(=O)[N+](=CC(=S)Nc1ccccc1Cl)C(N)=O` gave a TGI greater than 100 µM.

These compounds were tested on NCI-H23 lung (assay: NCI-60 cell line screen, 48 h).
`O=[N+]([O-])c1ccc(-c2nn3c(C45CC6CC(CC(C6)C4)C5)nnc3s2)c(Cl)c1` showed a TGI greater than 100 µM.
`CCCCCCCCCCCCCCCCNC(=O)/C(=C\c1ccc(Cl)c(Cl)c1)NC(=O)c1ccccc1` was tested, and the TGI was 52.6 µM.
For `CC(Cn1c2c(c3cc(O)ccc31)CCc1ccc(O)cc1-2)N(C)C` (stereo not drawn), the TGI was 41.2 µM.
With `O=C(Cn1c2ccc(Br)cc2c2nc3ccccc3nc21)Nc1ccccc1` the TGI was 93.6 µM.
`COC(=O)/C=C/[C@@H]1[C@H](C)N1S(=O)(=O)c1ccc(C)cc1` (stereo partly drawn) gave a TGI greater than 100 µM.
For `Cc1nn(C(=O)c2ccncc2)c2c1C(c1ccccc1[N+](=O)[O-])SC(N)=N2` (stereo not drawn), the TGI was greater than 10 µM.
Work on `CCOC(=O)C(=CNc1ccc(F)c(F)c1)C(=O)OCC` yielded a TGI greater than 100 µM.
`CN(N=O)c1nc2c(C(N)=O)ncn2s1` was tested, and the TGI was greater than 100 µM.
`C1CCCN(NC2=NCCO2)CC1` gave a TGI greater than 100 µM.
With `CCOc1ccc(NC(=O)C(=O)Nn2c(N)nnc2N)cc1` the TGI was greater than 100 µM.
In the case of `Cc1[nH]c(-c2ccccc2)c2nc(N(C)C)oc(=O)c12`, the TGI was greater than 100 µM.
`CC(C)(C)O/N=C/c1cc(NC(=S)c2ccsc2)ccc1Cl` was tested, and the TGI was 20.7 µM.
`Cc1ccc2nc(NS(=O)(=O)c3cc(C)c(Cl)cc3S)[nH]c2c1` was tested, and the TGI was greater than 100 µM.
Work on `CC(=O)N1C(Nc2nccs2)CCN1c1ccccc1` (stereo not drawn) yielded a TGI greater than 10 µM.
`COc1cc(OC)c2c(=O)c3cccc(C)c3n(C)c2c1` showed a TGI greater than 100 µM.
Work on `O=[N+]([O-])c1cccc2nccc(NCCN3CCOCC3)c12` yielded a TGI greater than 65.1 µM.
`O=C1NC(N/N=C\c2ccccc2)=N/C1=C/c1ccccc1` gave a TGI of 58.7 µM.
`CCCCCCCCCCCCOCC1(COCCCCCCCCCCCC)COC(c2ccc(N)cc2)OC1` was tested, and the TGI was greater than 100 µM.
With `C[C@@H]1CC[C@@H]2[C@@H](C1)O[C@@H]([C@@H](C)OCc1ccccc1)SC2(C)C` the TGI was 51.5 µM.
`Cc1sc2nc3n(c(=O)c2c1C)N=CN(c1ccc(Cl)cc1)C3` gave a TGI greater than 100 µM.
`NC(=O)[N+](=CC(=S)Nc1ccccc1Cl)C(N)=O` gave a TGI greater than 100 µM.

These compounds were tested on NCI-H226 lung (assay: NCI-60 cell line screen, 48 h).
Compound `O=[N+]([O-])c1ccc(-c2nn3c(C45CC6CC(CC(C6)C4)C5)nnc3s2)c(Cl)c1` has a TGI greater than 100 µM.
In the case of `CCCCCCCCCCCCCCCCNC(=O)/C(=C\c1ccc(Cl)c(Cl)c1)NC(=O)c1ccccc1`, the TGI was 56.8 µM.
`CC(Cn1c2c(c3cc(O)ccc31)CCc1ccc(O)cc1-2)N(C)C` (stereo not drawn) showed a TGI of 37.3 µM.
`O=C(Cn1c2ccc(Br)cc2c2nc3ccccc3nc21)Nc1ccccc1` was tested, and the TGI was 82.7 µM.
`COC(=O)/C=C/[C@@H]1[C@H](C)N1S(=O)(=O)c1ccc(C)cc1` (stereo partly drawn) was tested, and the TGI was greater than 100 µM.
Compound `Cc1nn(C(=O)c2ccncc2)c2c1C(c1ccccc1[N+](=O)[O-])SC(N)=N2` (stereo not drawn) has a TGI greater than 10 µM.
Compound `CCOC(=O)C(=CNc1ccc(F)c(F)c1)C(=O)OCC` has a TGI greater than 100 µM.
For `CN(N=O)c1nc2c(C(N)=O)ncn2s1`, the TGI was greater than 100 µM.
`C1CCCN(NC2=NCCO2)CC1` was tested, and the TGI was greater than 100 µM.
For `CCOc1ccc(NC(=O)C(=O)Nn2c(N)nnc2N)cc1`, the TGI was greater than 100 µM.
`Cc1[nH]c(-c2ccccc2)c2nc(N(C)C)oc(=O)c12` gave a TGI greater than 100 µM.
For `CC(C)(C)O/N=C/c1cc(NC(=S)c2ccsc2)ccc1Cl`, the TGI was 35.9 µM.
`CC(=O)N1C(Nc2nccs2)CCN1c1ccccc1` (stereo not drawn) gave a TGI greater than 10 µM.
`COc1cc(OC)c2c(=O)c3cccc(C)c3n(C)c2c1` showed a TGI greater than 100 µM.
Work on `O=[N+]([O-])c1cccc2nccc(NCCN3CCOCC3)c12` yielded a TGI of 17 µM.
`O=C1NC(N/N=C\c2ccccc2)=N/C1=C/c1ccccc1` gave a TGI of 50.2 µM.
In the case of `CCCCCCCCCCCCOCC1(COCCCCCCCCCCCC)COC(c2ccc(N)cc2)OC1`, the TGI was greater than 100 µM.
In the case of `C[C@@H]1CC[C@@H]2[C@@H](C1)O[C@@H]([C@@H](C)OCc1ccccc1)SC2(C)C`, the TGI was 34.5 µM.
`Cc1sc2nc3n(c(=O)c2c1C)N=CN(c1ccc(Cl)cc1)C3` gave a TGI greater than 100 µM.
Compound `NC(=O)[N+](=CC(=S)Nc1ccccc1Cl)C(N)=O` has a TGI greater than 100 µM.

What follows are compounds tested on CAKI-1 renal (assay: NCI-60 cell line screen, 48 h).
In the case of `O=[N+]([O-])c1ccc(-c2nn3c(C45CC6CC(CC(C6)C4)C5)nnc3s2)c(Cl)c1`, the TGI was greater than 100 µM.
Work on `CCCCCCCCCCCCCCCCNC(=O)/C(=C\c1ccc(Cl)c(Cl)c1)NC(=O)c1ccccc1` yielded a TGI greater than 100 µM.
In the case of `CC(Cn1c2c(c3cc(O)ccc31)CCc1ccc(O)cc1-2)N(C)C` (stereo not drawn), the TGI was 52.8 µM.
Compound `O=C(Cn1c2ccc(Br)cc2c2nc3ccccc3nc21)Nc1ccccc1` has a TGI of 86.9 µM.
`COC(=O)/C=C/[C@@H]1[C@H](C)N1S(=O)(=O)c1ccc(C)cc1` (stereo partly drawn) gave a TGI greater than 100 µM.
In the case of `Cc1nn(C(=O)c2ccncc2)c2c1C(c1ccccc1[N+](=O)[O-])SC(N)=N2` (stereo not drawn), the TGI was greater than 10 µM.
With `CCOC(=O)C(=CNc1ccc(F)c(F)c1)C(=O)OCC` the TGI was greater than 100 µM.
In the case of `CN(N=O)c1nc2c(C(N)=O)ncn2s1`, the TGI was greater than 100 µM.
For `C1CCCN(NC2=NCCO2)CC1`, the TGI was greater than 100 µM.
`CCOc1ccc(NC(=O)C(=O)Nn2c(N)nnc2N)cc1` showed a TGI greater than 100 µM.
`Cc1[nH]c(-c2ccccc2)c2nc(N(C)C)oc(=O)c12` was tested, and the TGI was greater than 100 µM.
Work on `CC(C)(C)O/N=C/c1cc(NC(=S)c2ccsc2)ccc1Cl` yielded a TGI of 30.2 µM.
For `Cc1ccc2nc(NS(=O)(=O)c3cc(C)c(Cl)cc3S)[nH]c2c1`, the TGI was greater than 100 µM.
In the case of `CC(=O)N1C(Nc2nccs2)CCN1c1ccccc1` (stereo not drawn), the TGI was greater than 10 µM.
In the case of `COc1cc(OC)c2c(=O)c3cccc(C)c3n(C)c2c1`, the TGI was greater than 100 µM.
`O=[N+]([O-])c1cccc2nccc(NCCN3CCOCC3)c12` gave a TGI of 20.2 µM.
`O=C1NC(N/N=C\c2ccccc2)=N/C1=C/c1ccccc1` showed a TGI of 87 µM.
`CCCCCCCCCCCCOCC1(COCCCCCCCCCCCC)COC(c2ccc(N)cc2)OC1` was tested, and the TGI was greater than 100 µM.
In the case of `C[C@@H]1CC[C@@H]2[C@@H](C1)O[C@@H]([C@@H](C)OCc1ccccc1)SC2(C)C`, the TGI was 29 µM.
In the case of `Cc1sc2nc3n(c(=O)c2c1C)N=CN(c1ccc(Cl)cc1)C3`, the TGI was greater than 100 µM.
In the case of `NC(=O)[N+](=CC(=S)Nc1ccccc1Cl)C(N)=O`, the TGI was greater than 100 µM.

Each compound was assayed on MDA-N (assay: NCI-60 cell line screen, 48 h).
Work on `O=[N+]([O-])c1ccc(-c2nn3c(C45CC6CC(CC(C6)C4)C5)nnc3s2)c(Cl)c1` yielded a TGI greater than 100 µM.
`CCCCCCCCCCCCCCCCNC(=O)/C(=C\c1ccc(Cl)c(Cl)c1)NC(=O)c1ccccc1` showed a TGI greater than 100 µM.
Compound `CC(Cn1c2c(c3cc(O)ccc31)CCc1ccc(O)cc1-2)N(C)C` (stereo not drawn) has a TGI of 48.1 µM.
In the case of `O=C(Cn1c2ccc(Br)cc2c2nc3ccccc3nc21)Nc1ccccc1`, the TGI was greater than 100 µM.
`COC(=O)/C=C/[C@@H]1[C@H](C)N1S(=O)(=O)c1ccc(C)cc1` (stereo partly drawn) showed a TGI greater than 100 µM.
For `Cc1nn(C(=O)c2ccncc2)c2c1C(c1ccccc1[N+](=O)[O-])SC(N)=N2` (stereo not drawn), the TGI was greater than 10 µM.
Work on `CCOC(=O)C(=CNc1ccc(F)c(F)c1)C(=O)OCC` yielded a TGI greater than 100 µM.
`CN(N=O)c1nc2c(C(N)=O)ncn2s1` showed a TGI greater than 100 µM.
With `C1CCCN(NC2=NCCO2)CC1` the TGI was greater than 100 µM.
`CCOc1ccc(NC(=O)C(=O)Nn2c(N)nnc2N)cc1` was tested, and the TGI was greater than 100 µM.
`Cc1[nH]c(-c2ccccc2)c2nc(N(C)C)oc(=O)c12` gave a TGI greater than 100 µM.
Compound `CC(C)(C)O/N=C/c1cc(NC(=S)c2ccsc2)ccc1Cl` has a TGI of 29.8 µM.
`Cc1ccc2nc(NS(=O)(=O)c3cc(C)c(Cl)cc3S)[nH]c2c1` gave a TGI greater than 100 µM.
`CC(=O)N1C(Nc2nccs2)CCN1c1ccccc1` (stereo not drawn) was tested, and the TGI was greater than 10 µM.
